Data taken from ChEMBL document CHEMBL1201862, “PubChem BioAssay data set” (2004).
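Five compound concentrations were applied to cells in 96-well plates for 48 hours; endpoints were derived by simple linear interpolation of the resulting dose-response curve. GI50 marks 50% less growth.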 Active and inactive are the calls of the source. Rule as the data show it: active = GI50 up to about 1.1 µM and inactive = higher.

Assays:
Test in all cases: NCI-60 cell line screen, 48 h
[1] = test system: A498
[2] = test system: ACHN
[3] = test system: COLO 205
[4] = test system: DLD-1
[5] = test system: DMS-114
[6] = test system: EKVX
[7] = test system: IGROV-1
[8] = test system: LOX IMVI
[9] = test system: MOLT-4
[10] = test system: Malme-3M
[11] = test system: NCI-H226
[12] = test system: RPMI-8226
[13] = test system: RXF 393
[14] = test system: SF-295
[15] = test system: SK-OV-3
[16] = test system: SW-620
[17] = test system: U-251
[18] = test system: UACC-257
[19] = test system: UACC-62
[20] = test system: XF498

Measured: GI50

C#Cc1ccccc1C(=O)OC
inactive: [1] > 100 µM | [2] > 100 µM | [3] > 100 µM | [4] > 100 µM | [5] 89.9 µM | [6] > 100 µM | [7] > 100 µM | [8] > 100 µM | [9] > 100 µM | [10] > 100 µM | [11] > 100 µM | [12] > 100 µM | [13] > 100 µM | [14] > 100 µM | [15] > 100 µM | [16] > 100 µM | [17] > 100 µM | [18] > 100 µM | [19] > 100 µM | [20] > 100 µM

CSc1nc2c(ncn2C2OC(CO)C(O)C(O)C2O)c(=O)n1C (configuration not stated)
inactive: [1] > 100 µM | [3] > 100 µM | [4] > 100 µM | [5] > 100 µM | [6] > 100 µM | [7] > 100 µM | [8] > 100 µM | [9] > 100 µM | [10] > 100 µM | [11] > 100 µM | [12] > 100 µM | [13] > 100 µM | [14] > 100 µM | [15] > 100 µM | [16] > 100 µM | [17] > 100 µM | [18] > 100 µM | [19] > 100 µM | [20] > 100 µM

Cc1nn(C(=O)Cc2ccccc2)c2c1C(c1ccc3ccccc3c1O)SC(=N)N2 (configuration not stated)
inactive: [1] > 100 µM | [2] > 100 µM | [3] > 100 µM | [6] > 100 µM | [7] > 100 µM | [8] > 100 µM | [9] 37.8 µM | [11] > 100 µM | [12] 76.2 µM | [14] > 100 µM | [15] > 100 µM | [16] > 100 µM | [18] > 100 µM | [19] > 100 µM

[O-]c1c2c(nn1-c1ccc(F)cc1)c1ccccc1c[n+]2Cc1ccccc1
inactive: [1] 30.9 µM | [2] 1.77 µM | [3] 1.76 µM | [4] 11 µM | [5] 10.8 µM | [6] 19.4 µM | [7] 11.1 µM | [9] 5.45 µM | [10] 11.7 µM | [11] 16.6 µM | [12] 3.34 µM | [13] 15.1 µM | [14] 14.6 µM | [15] 14.6 µM | [16] 14.8 µM | [17] 16.4 µM | [18] 11.5 µM | [19] 2 µM | [20] 19.2 µM
